Source: patent US20230054767A1, “COMBINATIONS” (Recurium IP Holdings, LLC, priority 2019, published 2023)

Columns and labels:
Type in all cases: in vivo
MCF-7 cells [1] = test: Example 1: MCF-7 xenograft tumor model, Compound A and Compound 5; details: BALB/c nude mice, orally once a day for 21 days, Compound A 10 mg/kg, Compound 5 200 mg/kg, alone or combined
Description: Example 1: MCF-7 cells were grown in DMEM Medium supplemented with 15% heat inactivated fetal bovine serum at 37° C. in an atmosphere of 5% CO2 in air. BALB/c nude mice were implanted subcutaneously on the 2nd right mammary fat pad with a single cell suspension of 95% viable tumor cells (1.5×10^7) in 200 μL DMEM Matrigel mixture (1:1 ratio) without serum. When tumors reached approximately 172 mm^3, animals were randomly distributed into treatment groups of 10 animals each and dosed orally, once a day for 21 days as follows: vehicle at the same volume as the single agent treatment; Compound A (alternatively referred to as “Compound (A)” in the specification and figures) at 10 mg/kg; Compound 5 at 200 mg/kg; and the combination treatment of Compound A 10 mg/kg) and Compound 5 (200 mg/kg). In addition, estradiol benzoate injections were given subcutaneously (40 μg/ 20 μL, twice weekly) to all treatment groups. Tumor volumes were evaluated twice per week to calculate tumor volume over time, and mice were weighed twice per week as a surrogate for signs of toxicity. Tumor growth inhibition (TGI) was calculated using the following equation TGI=(1−(Td−T0)/(Cd−C0))×100%. […] The percent tumor regression was calculated using the formula: (1−(Td/T0))×100%.

MCF-7 cells [2] = test: Example 2: MCF-7 xenograft tumor model, Compound A (5 mg/kg) and Compound 5; details: BALB/c nude mice, orally once a day for 24 days, Compound 5 200 mg/kg, alone or combined
Description: (§1) Example 1: MCF-7 cells were grown in DMEM Medium supplemented with 15% heat inactivated fetal bovine serum at 37° C. in an atmosphere of 5% CO2 in air. BALB/c nude mice were implanted subcutaneously on the 2nd right mammary fat pad with a single cell suspension of 95% viable tumor cells (1.5×10^7) in 200 μL DMEM Matrigel mixture (1:1 ratio) without serum. […] Tumor volumes were evaluated twice per week to calculate tumor volume over time, and mice were weighed twice per week as a surrogate for signs of toxicity. […] The percent tumor regression was calculated using the formula: (1−(Td/T0))×100%.
Example 2: MCF-7 cells were grown in DMEM Medium supplemented with 15% heat inactivated fetal bovine serum at 37° C. in an atmosphere of 5% CO2 in air. […] Tumor volumes were evaluated twice per week to calculate tumor volume over time, and mice were weighed twice per week as a surrogate for signs of toxicity. TGI and Tumor regression values were calculated using the equations provided in Example 1. […]

MCF-7 cells [3] = test: Example 3: MCF-7 xenograft tumor model, Compound A and Compound 6; details: BALB/c nude mice, orally once a day for 28 days, Compound A 10 mg/kg, Compound 6 50 mg/kg, alone or combined
Description: as §1
Example 3: MCF-7 cells were grown in DMEM Medium supplemented with 15% heat inactivated fetal bovine serum at 37° C. in an atmosphere of 5% CO2 in air. […] Tumor volumes were evaluated twice per week to calculate tumor volume over time, and mice were weighed twice per week as a surrogate for signs of toxicity. TGI and Tumor regression values were calculated using the equations provided in Example 1.

C[C@@H]1Cc2c([nH]c3ccccc23)[C@@H](c2c(F)cc(/C=C/C(=O)O)cc2F)N1C12CC(C1)C2 [Compound A]
TUMOR REGRESSION % (DAY 21) (MCF-7 cells [1]): 0%
TGI % (DAY 21) (MCF-7 cells [1]; estradiol benzoate s.c.): 81%
TUMOR REGRESSION % (DAY 24) (MCF-7 cells [2]): 8%
TGI % (DAY 24) (MCF-7 cells [2]; estradiol benzoate s.c.): 108%
TUMOR REGRESSION % (DAY 29) (MCF-7 cells [3]): 33%
TGI % (DAY 29) (MCF-7 cells [3]; estradiol benzoate s.c.): 120%
